According to patent publication US6172262A, “Amphiphilic agents for membrane protein solubilization” (priority 1999, dated 2001):
≈ marks a conversion by molar mass, not a printed value. Where “and” joins values, the source holds several entries; their conditions need not be identical. Identical values can stand only once. Entries after “also recorded” stand apart in the source; their conditions may differ.

How the values were obtained:
BR = experiment: Loss of exciton coupling of BR by CD spectra (rate of solubilization); design: species or system Halobacterium; details: room temperature
Method: Tripod detergents 4.65 and 4.66 were tested in this fashion and shown to solubilize BR from the PM quite rapidly. To measure whether the solublized BR was present in a monomeric state, CD spectra of the supernatants were taken. When suspended within the native PM, BR yields a distinct sigmoidal CD spectrum due to exciton coupling between adjacent retinal chromophores. It has been shown that the strength of the exciton coupling is directly proportional to the concentration of retinal chromophore in the PM. Because the exciton coupling requires retinals to be held in a fixed geometry (as when suspended in the PM), the solubilization of BR can be measured in terms of the loss of exciton coupling. […] Exciton coupling was completely gone after less than 10 minutes for samples solubilized by 4.65 and 4.66, a time period which is faster than the time required to obtain a CD spectrum.

[1] = CMC by uptake of fluorescent dye 1,6-diphenylhexatriene, fluorescence spectroscopy; assay type: physicochemical; details: for CMC of N-oxide relative to corresponding hydrochloride salt: 4.65 vs 4.78, 4.66 vs 4.79; for CMC (Critical Micelle Concentration): uptake of 1,6-diphenylhexatriene, 25 mM sodium phosphate pH 6.9, Table 1 and text; for CMC: Table 2, dye uptake versus concentration monitored by fluorescence spectroscopy
Method: The CMCs of detergents 4.65-4.72 were determined by monitoring the uptake of a fluorescent dye (1,6-diphenylhexatriene) with increasing detergent concentration (Table 1, CMC's determined by dye uptake versus concentration monitored by fluorescence spectroscopy). The CMCs of N-oxide isomers 4.65, 4.67, and 4.68 are very similar: 3 mM, 3 mM, and […], respectively. […] The CMCs for the N-oxides 4.65 and 4.66 are twice the CMCs of the corresponding hydrochloride salts (4.78 and 4.79). The hydrochloride salts were formed from the amine precursors to the N-oxides. Most cationic detergents have CMCs that are much higher than non-ionic or zwitterionic analogs. For example, dodecylammonium bromide has a CMC of 15 mM which is >7 times larger than the CMC of the N-oxide analog (LDAO, CMC=2 mM).
The CMCs of 4.100 and 4.104 were determined by the uptake of the fluorescent dye 1,6-diphenylhexatriene. The CMCs are 0.125 mM and 0.700 mM respectively. These values are substantially lower than the CMC of 4.65, which was determined to be 3 mM.
The CMC of a detergent can be determined experimentally by measuring the solubilization of a water-insoluble dye or fluorophore while varying the concentration of detergent. CMC may also be determined by measuring the diminution of the surface tension of an aqueous solution as a function of detergent concentration. (CMC's determined by either method correlate with each other.) The CMC is determined by extrapolating the plot of solubilization vs. concentration (or surface tension vs. concentration) in the two linear regions above and below the CMC. Where the two lines intersect is the CMC. In this Example, CMC's were determined by the method of Nugebauer, J. M. (1990), Methods in Enzymology, 182:239-253:
Tripod solutions in aqueous solutions containing 25 mM sodium phosphate pH 6.9 were prepared and transferred to screw-capped vials, and […] of a 1,6-diphenylhexatriene solution (DPH, 3.125 mM DPH in THF) was added. The solutions were vortexed at room temperature for 30 seconds. The solutions were placed into a 3 mm×3mm quartz cell and the fluorescence spectrum was obtained (excitation 358 nm, emission 430 nm, excitation slit width=1 mm, emission slit width=20 nm, PMT voltage=700). The fluorescence intensity of each sample was plotted against amphiphile concentration. […] The data points immediately surrounding the CMC were not considered due to non-linear behavior. See Tables 1 and 2, above, for the results.

Bacteriorhodopsin (BR) = molecular target: T1, Bacteriorhodopsin (BR) (Halobacterium salinarum, UniProt P02945); experiment: Solubilization of bacteriorhodopsin (BR) from purple membrane (PM)
T1 construct: We used BR solubilization from the PM to evaluate tripod detergents; endogenous in cells
T1 sequence (P02945 14-261 limits assumed): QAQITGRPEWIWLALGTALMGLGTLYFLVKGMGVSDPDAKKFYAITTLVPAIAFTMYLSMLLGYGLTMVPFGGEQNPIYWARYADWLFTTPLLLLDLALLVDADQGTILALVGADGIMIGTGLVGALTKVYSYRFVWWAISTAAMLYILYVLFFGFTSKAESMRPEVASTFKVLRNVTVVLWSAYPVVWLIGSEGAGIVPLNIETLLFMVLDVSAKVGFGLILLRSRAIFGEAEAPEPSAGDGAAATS
Method: We used BR solubilization from the PM to evaluate tripod detergents synthesized using the modular synthetic approach described above. The retinal chromophore of BR allowed us to quantify solubilized material by UV. Solubilized BR is defined as the intact protein left in the supernatant after a sample is centrifuged for 30 minutes at 300,000 g. The percent BR solubilized is determined by dividing the absorbance of the supernatant by the absorbance of the solution before centrifugation.
Solubilization experiments were conducted by making a series of solutions with constant concentration of PM and varying the concentration of detergent. […] The absorbance at the λmax (between 540 nm and 570 nm) was then measured, and immediately afterward the samples were centrifuged for 30 minutes at 300,000 g. The supernatant was carefully removed so as not to disturb pelleted material. Absorbance measurements were made again, and the ratio of the supernatant absorbance to the absorbance before centrifugation provided the percent solubilization.

Aqueous solubility = assay type: physicochemical; details: for solubility on adding small amounts of ethanol or ethyl acetate: aqueous suspensions plus ethanol or ethyl acetate

Row | SMILES | CMC (Critical Micelle Concentration) [1] | CMC [1] | also measured
1 | CCCCC(CCCC)(CC(=O)NCCC[N+](C)(C)[O-])c1ccccc1 [Detergent 4.66] | 4.5 mM | – | rate of BR solubilization (in words) (BR): quite rapidly; also recorded: too rapid to monitor the loss of exciton coupling; time to complete loss of exciton coupling (BR): less than 10 minutes; CMC of N-oxide relative to corresponding hydrochloride salt [1]: twice; BR solubilization (in words) (Bacteriorhodopsin (BR)): readily solubilize BR; also recorded: can solubilize BR
2 | CCCCC(CCCC)(CC(=O)NCC(C)(C)CN(C)C)c1ccccc1 [Detergent 4.83] | 14.7 mM | – | –
3 | CCCCC(CCCC)(CC(=O)N(CCC[N+](C)(C)[O-])CCC[N+](C)(C)[O-])c1ccccc1 [Detergent 4.71] | 10 mM | – | –
4 | CCCCCCC(CCCC)(CCCC)CC(=O)N(CCCN(C)C)CCCN(C)C [Detergent 4.92] | – | 1 mM | –
5 | CCCCCCC(CC(=O)N(CC[N+](C)(C)[O-])CC[N+](C)(C)[O-])(c1ccccc1)c1ccccc1 [Detergent 4.55] | – | – | BR solubilization (in words) (Bacteriorhodopsin (BR)): readily solubilize BR
6 | C[N+](C)([O-])CCN(CC[N+](C)(C)[O-])C(=O)CC(c1ccc(-c2ccccc2)cc1)(c1ccc(-c2ccccc2)cc1)c1ccc(-c2ccccc2)cc1 [Detergent 4.62] | – | – | solubility on adding small amounts of ethanol or ethyl acetate (Aqueous solubility): greatly increased; solubility in water (in words) (Aqueous solubility; water): insoluble in water
7 | CN(C)CCCN(CCCN(C)C)C(=O)CC(c1ccccc1)(c1ccccc1)c1ccc(C(C)(C)C)cc1 [Detergent 4.89] | – | 3 mM | –
8 | CCCCC(CCCC)(CC(=O)NCCCN(C)C)c1ccccc1 [Detergent 4.79] | 2.8 mM | – | –
9 | CN(C)CCCN(CCCN(C)C)C(=O)CC(c1ccc(C(C)(C)C)cc1)(c1ccc(C(C)(C)C)cc1)c1ccc(C(C)(C)C)cc1 [Detergent 4.91] | – | insol. | –
10 | CN(C)CCCN(CCCN(C)C)C(=O)CC(c1ccccc1)(c1ccccc1)c1ccccc1 [Detergent 4.88] | – | 30 mM | –
11 | CCCCC(CC(=O)N(CCCN(C)C)CCCN(C)C)(C1CCCCC1)C1CCCCC1 [Detergent 4.94] | – | 3 mM | –
12 | CCCCCCC(CC(=O)N(CCCN(C)C)CCCN(C)C)(c1ccccc1)c1ccccc1 [Detergent 4.87] | – | 4 mM | –
13 | CCCCC(CCCC)(CCCC)CC(=O)N(CCCN(C)C)CCCN(C)C [Detergent 4.93] | – | 6 mM | –
14 | CCCCC(CCCC)(CC(=O)NC(C)(C)C[N+](C)(C)[O-])c1ccccc1 [Detergent 4.68] | 1.2 mM | – | –
15 | CCCCC(CCCC)(CC(=O)N(CC)CCN(C)C)c1ccccc1 [Detergent 4.78] | 1.3 mM | – | –
16 | CCCCC(CCCC)(CC(=O)NC(C)(C)CN(C)C)c1ccccc1 [Detergent 4.81] | Does not take up dye up to solubility limit | – | solubility (Aqueous solubility; water, Table 1, no dye uptake up to this limit, read-out: solubility limit): ~12.5 mM (≈ 4510 µg/mL)
17 | CCCCC(CCCC)(CC(=O)N(CCCN(C)C)CCCN(C)C)C1CCCCC1 [Detergent 4.96] | – | 4.6 mM | –
18 | CCCCC(CCCC)(CCN(C)C)c1ccccc1 [Detergent 4.82] | 5 mM | – | –

Row | SMILES | CMC (Critical Micelle Concentration) [1] | CMC [1] | also measured
19 | CCCCC(CC(=O)N(CCCN(C)C)CCCN(C)C)(c1ccccc1)c1ccccc1 [Detergent 4.86] | – | 21 mM | –
20 | CCCCCCC(CCCC)(CCCC)CC(=O)N(CC[N+](C)(C)[O-])CC[N+](C)(C)[O-] [Detergent 4.39] | – | – | BR solubilization (Bacteriorhodopsin (BR); after 11 days): approximately 30%
21 | CCCCC(CCCC)(CC[N+](C)(C)[O-])c1ccccc1 [Detergent 4.69] | 2.5 mM | – | –
22 | CCCCC(CCCC)(CCOC1O[C@H](CO)[C@@H](O[C@H]2O[C@H](CO)[C@@H](O)[C@H](O)[C@H]2O)[C@H](O)[C@H]1O)c1ccccc1 (stereo partly shown) [A.2.5] | – | – | BR solubilized from the purple membrane (Bacteriorhodopsin (BR)): approximately 50%; solubility in water (in words) (Aqueous solubility; water): sparingly soluble in water
23 | CCCCC(CCCC)(CC(=O)N(C)CCC[N+](C)(C)[O-])c1ccccc1 [Detergent 4.67] | 3 mM | – | –
24 | CN(C)CCCN(CCCN(C)C)C(=O)CC1(c2ccccc2)CCCCCCC1 [Detergent 4.85] | – | 80 mM | –
25 | CCCCC(CCCC)(CC(=O)N(CC)CC[N+](C)(C)[O-])c1ccccc1 [Detergent 4.65] | 3 mM | – | rate of BR solubilization (in words) (BR): quite rapidly; also recorded: too rapid to monitor the loss of exciton coupling; time to complete loss of exciton coupling (BR): less than 10 minutes; CMC of N-oxide relative to corresponding hydrochloride salt [1]: twice; BR solubilization (in words) (Bacteriorhodopsin (BR)): can solubilize BR; BR solubilization (Bacteriorhodopsin (BR); >99% pure by HPLC): greater than 90%
26 | CCCCC(C)(CCCC)c1ccc(C(=O)N(CC)CC[N+](C)(C)[O-])cc1 [Detergent 4.104] | 0.700 mM | – | –
27 | CCCCC(CC(=O)N(CC[N+](C)(C)[O-])CC[N+](C)(C)[O-])(C1CCCCC1)C1CCCCC1 [Detergent 4.56] | – | – | BR solubilization (in words) (Bacteriorhodopsin (BR)): readily solubilize BR
28 | CN(C)CCCN(CCCN(C)C)C(=O)CC1(C2CCCCC2)CCCCCCC1 [Detergent 4.95] | – | 24 mM | –
29 | CN(C)CCCN(CCCN(C)C)C(=O)CC(c1ccc(-c2ccccc2)cc1)(c1ccc(-c2ccccc2)cc1)c1ccc(-c2ccccc2)cc1 [Detergent 4.90] | – | insol. | –
30 | CCCCCCCCCCc1ccc(C(=O)N(CC)CC[N+](C)(C)[O-])cc1 [Detergent 4.100] | 0.125 mM | – | –
31 | CCCCC(CCCC)(CC(=O)N(CC[N+](C)(C)[O-])CC[N+](C)(C)[O-])c1ccccc1 [Detergent 4.37] | – | – | BR solubilization (Bacteriorhodopsin (BR); after mixing for approximately 20 hrs): greater than 90%; BR solubilization (Bacteriorhodopsin (BR); first batch (about twice as much impurity 4.63)): > 90%; BR solubilization (Bacteriorhodopsin (BR); second batch): < 50% and 50%
32 | CCCCC(CCCC)(CC(=O)NCC(C)(C)C[N+](C)(C)[O-])c1ccccc1 [Detergent 4.70] | 7.5 mM | – | CMC of 4.70 relative to that of 4.68 [1]: six times larger
33 | CC(C)(C)c1ccc(C(CC(=O)N(CC[N+](C)(C)[O-])CC[N+](C)(C)[O-])(c2ccc(C(C)(C)C)cc2)c2ccc(C(C)(C)C)cc2)cc1 [Detergent 4.59] | – | – | solubility on adding small amounts of ethanol or ethyl acetate (Aqueous solubility): greatly increased; solubility in water (in words) (Aqueous solubility; water): insoluble in water
34 | CCCCC(CCCC)(CC(=O)N(C)CCCN(C)C)c1ccccc1 [Detergent 4.80] | 5 mM | – | –
35 | CCCCC(CCCC)(CC(=O)N(CCCN(C)C)CCCN(C)C)c1ccccc1 [Detergent 4.84] | 24 mM | 24 mM | –
